Laboratory results published in ChEMBL document CHEMBL5543108, “Structure-based design and synthesis of BML284 derivatives: A novel class of colchicine-site noncovalent tubulin degradation agents” (Eur J Med Chem, 2024).
Active and inactive are the calls of the source. The calls are words filed in the database; no cut-off is given here.

test system: HeLa; assay: Antiproliferative activity against human HeLa cells assessed as reduction in cell viability measured after 72 hrs; type: functional, cell-based; conditions: not given

IC50 [µM]	SMILES
0.02	CCN(Cc1ccc2c(c1)OCO2)c1cc(-c2cccc(OC)c2)nc(N)n1
0.08	CCCN(Cc1ccc2c(c1)OCO2)c1cc(-c2cccc(OC)c2)nc(N)n1
> 2	CC(C)c1cccc(-c2cc(NCc3ccc4c(c3)OCO4)nc(N)n2)c1
0.12	Nc1nc(NCc2ccc3c(c2)OCO3)cc(-c2ccc3c(c2)CCN3)n1
0.44	COc1cccc(-c2cc(NCc3cccc(F)c3)nc(N)n2)c1
> 2	Nc1nc(NCc2ccc3c(c2)OCO3)cc(-c2ccc3ccccc3c2)n1
0.18	Nc1nc(NCc2ccc3c(c2)OCO3)cc(-c2ccc3c(c2)OCO3)n1
0.06	COc1cccc(-c2cc(NCc3ccc(OC)c(OC)c3)nc(N)n2)c1
0.91	Nc1nc(NCc2ccc3c(c2)OCO3)cc(-c2ccoc2)n1
0.17	Cc1ccc(-c2cc(NCc3ccc4c(c3)OCO4)nc(N)n2)cc1
0.46	Nc1nc(NCc2ccc3c(c2)OCO3)cc(-c2ccccc2)n1
> 2	CC1(C)c2ccccc2-c2ccc(-c3cc(NCc4ccc5c(c4)OCO5)nc(N)n3)cc21
48.6	COc1cccc(-c2cc(N)nc(NCc3ccc4c(c3)OCO4)c2)c1
0.12	COc1ccc(CNc2cc(-c3cccc(OC)c3)nc(N)n2)cc1
> 2	COc1cc(-c2cc(NCc3ccc4c(c3)OCO4)nc(N)n2)cc(OC)c1OC
> 2	N#Cc1cccc(-c2cc(NCc3ccc4c(c3)OCO4)nc(N)n2)c1
0.02	COc1cccc(-c2cc(N(C)Cc3ccc4c(c3)OCO4)nc(N)n2)c1
> 2	COc1ccc(-c2cc(NCc3ccc4c(c3)OCO4)nc(N)n2)cc1OC
> 2	Nc1nc(NCc2ccc3c(c2)OCO3)cc(-c2ccc(Oc3ccccc3)cc2)n1
30.8	COc1cccc(-c2cc(NCc3ccc4c(c3)OCO4)ncn2)c1
> 2	CC(=O)Nc1cccc(-c2cc(NCc3ccc4c(c3)OCO4)nc(N)n2)c1
0.44	COc1cccc(-c2cc(NCc3ccccc3)nc(N)n2)c1
0.5	Nc1nc(NCc2ccc3c(c2)OCO3)cc(-c2cccc3ccccc23)n1

test system: K562; assay: Antiproliferative activity against human K562 cells assessed as reduction in cell viability measured after 72 hrs; type: functional, cell-based; conditions: K562, 72 h

IC50 [µM]	SMILES
0.04	CCN(Cc1ccc2c(c1)OCO2)c1cc(-c2cccc(OC)c2)nc(N)n1
0.08	CCCN(Cc1ccc2c(c1)OCO2)c1cc(-c2cccc(OC)c2)nc(N)n1
> 2	CC(C)c1cccc(-c2cc(NCc3ccc4c(c3)OCO4)nc(N)n2)c1
0.02	Nc1nc(NCc2ccc3c(c2)OCO3)cc(-c2ccc3c(c2)CCN3)n1
0.32	COc1cccc(-c2cc(NCc3cccc(F)c3)nc(N)n2)c1
1.82	Nc1nc(NCc2ccc3c(c2)OCO3)cc(-c2ccc3ccccc3c2)n1
0.07	Nc1nc(NCc2ccc3c(c2)OCO3)cc(-c2ccc3c(c2)OCO3)n1
0.07	COc1cccc(-c2cc(NCc3ccc(OC)c(OC)c3)nc(N)n2)c1
0.28	Nc1nc(NCc2ccc3c(c2)OCO3)cc(-c2ccoc2)n1
0.15	Cc1ccc(-c2cc(NCc3ccc4c(c3)OCO4)nc(N)n2)cc1
0.14	Nc1nc(NCc2ccc3c(c2)OCO3)cc(-c2ccccc2)n1
> 2	CC1(C)c2ccccc2-c2ccc(-c3cc(NCc4ccc5c(c4)OCO5)nc(N)n3)cc21
19.3	COc1cccc(-c2cc(N)nc(NCc3ccc4c(c3)OCO4)c2)c1
0.13	COc1ccc(CNc2cc(-c3cccc(OC)c3)nc(N)n2)cc1
> 2	COc1cc(-c2cc(NCc3ccc4c(c3)OCO4)nc(N)n2)cc(OC)c1OC
> 2	N#Cc1cccc(-c2cc(NCc3ccc4c(c3)OCO4)nc(N)n2)c1
0.04	COc1cccc(-c2cc(N(C)Cc3ccc4c(c3)OCO4)nc(N)n2)c1
> 2	COc1ccc(-c2cc(NCc3ccc4c(c3)OCO4)nc(N)n2)cc1OC
> 2	Nc1nc(NCc2ccc3c(c2)OCO3)cc(-c2ccc(Oc3ccccc3)cc2)n1
8.63	COc1cccc(-c2cc(NCc3ccc4c(c3)OCO4)ncn2)c1
> 2	CC(=O)Nc1cccc(-c2cc(NCc3ccc4c(c3)OCO4)nc(N)n2)c1
0.27	COc1cccc(-c2cc(NCc3ccccc3)nc(N)n2)c1
0.25	Nc1nc(NCc2ccc3c(c2)OCO3)cc(-c2cccc3ccccc23)n1

test system: MOLM-13; assay: Antiproliferative activity against human MOLM-13 cells assessed as reduction in cell viability measured after 72 hrs; type: functional, cell-based; conditions: MOLM-13, 72 h

IC50 [µM]	SMILES
0.03	CCN(Cc1ccc2c(c1)OCO2)c1cc(-c2cccc(OC)c2)nc(N)n1
0.08	CCCN(Cc1ccc2c(c1)OCO2)c1cc(-c2cccc(OC)c2)nc(N)n1
> 2	CC(C)c1cccc(-c2cc(NCc3ccc4c(c3)OCO4)nc(N)n2)c1
0.09	Nc1nc(NCc2ccc3c(c2)OCO3)cc(-c2ccc3c(c2)CCN3)n1
0.12	COc1cccc(-c2cc(NCc3cccc(F)c3)nc(N)n2)c1
> 2	Nc1nc(NCc2ccc3c(c2)OCO3)cc(-c2ccc3ccccc3c2)n1
0.11	Nc1nc(NCc2ccc3c(c2)OCO3)cc(-c2ccc3c(c2)OCO3)n1
0.03	COc1cccc(-c2cc(NCc3ccc(OC)c(OC)c3)nc(N)n2)c1
0.56	Nc1nc(NCc2ccc3c(c2)OCO3)cc(-c2ccoc2)n1
0.2	Cc1ccc(-c2cc(NCc3ccc4c(c3)OCO4)nc(N)n2)cc1
0.25	Nc1nc(NCc2ccc3c(c2)OCO3)cc(-c2ccccc2)n1
> 2	CC1(C)c2ccccc2-c2ccc(-c3cc(NCc4ccc5c(c4)OCO5)nc(N)n3)cc21
20.2	COc1cccc(-c2cc(N)nc(NCc3ccc4c(c3)OCO4)c2)c1
0.12	COc1ccc(CNc2cc(-c3cccc(OC)c3)nc(N)n2)cc1
> 2	COc1cc(-c2cc(NCc3ccc4c(c3)OCO4)nc(N)n2)cc(OC)c1OC
> 2	N#Cc1cccc(-c2cc(NCc3ccc4c(c3)OCO4)nc(N)n2)c1
0.03	COc1cccc(-c2cc(N(C)Cc3ccc4c(c3)OCO4)nc(N)n2)c1
> 2	COc1ccc(-c2cc(NCc3ccc4c(c3)OCO4)nc(N)n2)cc1OC
> 2	Nc1nc(NCc2ccc3c(c2)OCO3)cc(-c2ccc(Oc3ccccc3)cc2)n1
12.5	COc1cccc(-c2cc(NCc3ccc4c(c3)OCO4)ncn2)c1
> 2	CC(=O)Nc1cccc(-c2cc(NCc3ccc4c(c3)OCO4)nc(N)n2)c1
0.36	COc1cccc(-c2cc(NCc3ccccc3)nc(N)n2)c1
0.22	Nc1nc(NCc2ccc3c(c2)OCO3)cc(-c2cccc3ccccc23)n1

target: T1, Tubulin (Homo sapiens) (UniProt P68371+Q9H4B7+P0DPH7+P68366+Q13509+Q71U36+P04350+Q3ZCM7+P07437+P68363+Q9BQE3+Q6PEY2+Q13885+Q9BVA1+Q9BUF5); assay: Induction of tubulin degradation in human HeLa cells measured after 24 hrs by immunoblot analysis; type: cell-based; conditions: dose <= 50.0 µM

Activity	SMILES
Dose-Dependent Effect	CCN(Cc1ccc2c(c1)OCO2)c1cc(-c2cccc(OC)c2)nc(N)n1
Dose-Dependent Effect	Nc1nc(NCc2ccc3c(c2)OCO3)cc(-c2ccccc2)n1
inactive	COc1cccc(-c2cc(N)nc(NCc3ccc4c(c3)OCO4)c2)c1
Dose-Dependent Effect	COc1cccc(-c2cc(NCc3ccc4c(c3)OCO4)ncn2)c1
Dose-Dependent Effect	COc1cccc(-c2cc(NCc3ccccc3)nc(N)n2)c1

target: T1, Tubulin (Homo sapiens); assay: Induction of tubulin degradation in human HeLa cells at 50 uM measured after 24 hrs by immunoblot analysis; type: cell-based; conditions: not given

Activity	SMILES
inactive	COc1cccc(-c2cc(N)nc(NCc3ccc4c(c3)OCO4)c2)c1
Active	COc1cccc(-c2cc(NCc3ccc4c(c3)OCO4)ncn2)c1

test system: HCT-116; assay: cells; conditions: Homo sapiens, HCT-116, 72 h
Description: Antiproliferative activity against human HCT-116 cells assessed as reduction in cell viability measured after 72 hrs

IC50 [µM]	SMILES
0.06	CCN(Cc1ccc2c(c1)OCO2)c1cc(-c2cccc(OC)c2)nc(N)n1
0.11	CCCN(Cc1ccc2c(c1)OCO2)c1cc(-c2cccc(OC)c2)nc(N)n1
> 2	CC(C)c1cccc(-c2cc(NCc3ccc4c(c3)OCO4)nc(N)n2)c1
0.3	Nc1nc(NCc2ccc3c(c2)OCO3)cc(-c2ccc3c(c2)CCN3)n1
0.16	COc1cccc(-c2cc(NCc3cccc(F)c3)nc(N)n2)c1
1.67	Nc1nc(NCc2ccc3c(c2)OCO3)cc(-c2ccc3ccccc3c2)n1
0.39	Nc1nc(NCc2ccc3c(c2)OCO3)cc(-c2ccc3c(c2)OCO3)n1
0.03	COc1cccc(-c2cc(NCc3ccc(OC)c(OC)c3)nc(N)n2)c1
1.01	Nc1nc(NCc2ccc3c(c2)OCO3)cc(-c2ccoc2)n1
0.42	Cc1ccc(-c2cc(NCc3ccc4c(c3)OCO4)nc(N)n2)cc1
0.91	Nc1nc(NCc2ccc3c(c2)OCO3)cc(-c2ccccc2)n1
> 2	CC1(C)c2ccccc2-c2ccc(-c3cc(NCc4ccc5c(c4)OCO5)nc(N)n3)cc21
37.5	COc1cccc(-c2cc(N)nc(NCc3ccc4c(c3)OCO4)c2)c1
0.52	COc1ccc(CNc2cc(-c3cccc(OC)c3)nc(N)n2)cc1
> 2	COc1cc(-c2cc(NCc3ccc4c(c3)OCO4)nc(N)n2)cc(OC)c1OC
> 2	N#Cc1cccc(-c2cc(NCc3ccc4c(c3)OCO4)nc(N)n2)c1
0.035	COc1cccc(-c2cc(N(C)Cc3ccc4c(c3)OCO4)nc(N)n2)c1
> 2	COc1ccc(-c2cc(NCc3ccc4c(c3)OCO4)nc(N)n2)cc1OC
> 2	Nc1nc(NCc2ccc3c(c2)OCO3)cc(-c2ccc(Oc3ccccc3)cc2)n1
15.8	COc1cccc(-c2cc(NCc3ccc4c(c3)OCO4)ncn2)c1
> 2	CC(=O)Nc1cccc(-c2cc(NCc3ccc4c(c3)OCO4)nc(N)n2)c1
0.92	COc1cccc(-c2cc(NCc3ccccc3)nc(N)n2)c1
0.77	Nc1nc(NCc2ccc3c(c2)OCO3)cc(-c2cccc3ccccc23)n1

test system: MCF7; assay: cells; conditions: Homo sapiens, MCF7, 72 h
Description: Antiproliferative activity against human MCF7 cells assessed as reduction in cell viability measured after 72 hrs

IC50 [µM]	SMILES
0.06	CCN(Cc1ccc2c(c1)OCO2)c1cc(-c2cccc(OC)c2)nc(N)n1
0.11	CCCN(Cc1ccc2c(c1)OCO2)c1cc(-c2cccc(OC)c2)nc(N)n1
> 2	CC(C)c1cccc(-c2cc(NCc3ccc4c(c3)OCO4)nc(N)n2)c1
0.64	Nc1nc(NCc2ccc3c(c2)OCO3)cc(-c2ccc3c(c2)CCN3)n1
0.36	COc1cccc(-c2cc(NCc3cccc(F)c3)nc(N)n2)c1
> 2	Nc1nc(NCc2ccc3c(c2)OCO3)cc(-c2ccc3ccccc3c2)n1
1.21	Nc1nc(NCc2ccc3c(c2)OCO3)cc(-c2ccc3c(c2)OCO3)n1
0.04	COc1cccc(-c2cc(NCc3ccc(OC)c(OC)c3)nc(N)n2)c1
> 2	Nc1nc(NCc2ccc3c(c2)OCO3)cc(-c2ccoc2)n1
0.45	Cc1ccc(-c2cc(NCc3ccc4c(c3)OCO4)nc(N)n2)cc1
1.91	Nc1nc(NCc2ccc3c(c2)OCO3)cc(-c2ccccc2)n1
> 2	CC1(C)c2ccccc2-c2ccc(-c3cc(NCc4ccc5c(c4)OCO5)nc(N)n3)cc21
26.5	COc1cccc(-c2cc(N)nc(NCc3ccc4c(c3)OCO4)c2)c1
0.62	COc1ccc(CNc2cc(-c3cccc(OC)c3)nc(N)n2)cc1
> 2	COc1cc(-c2cc(NCc3ccc4c(c3)OCO4)nc(N)n2)cc(OC)c1OC
> 2	N#Cc1cccc(-c2cc(NCc3ccc4c(c3)OCO4)nc(N)n2)c1
0.12	COc1cccc(-c2cc(N(C)Cc3ccc4c(c3)OCO4)nc(N)n2)c1
> 2	COc1ccc(-c2cc(NCc3ccc4c(c3)OCO4)nc(N)n2)cc1OC
> 2	Nc1nc(NCc2ccc3c(c2)OCO3)cc(-c2ccc(Oc3ccccc3)cc2)n1
22.8	COc1cccc(-c2cc(NCc3ccc4c(c3)OCO4)ncn2)c1
> 2	CC(=O)Nc1cccc(-c2cc(NCc3ccc4c(c3)OCO4)nc(N)n2)c1
0.85	COc1cccc(-c2cc(NCc3ccccc3)nc(N)n2)c1
0.96	Nc1nc(NCc2ccc3c(c2)OCO3)cc(-c2cccc3ccccc23)n1
